Assay results reported in patent US7041276B2, “Methods of screening agents for activity using teleosts” (priority 1998, dated 2006).
“Also recorded” adds a separate entry of the source.

How the values were obtained:
[1] = system: zebrafish embryos; test: Five-day zebrafish toxicity testing; format: in vivo
Experimental: Fertilized zebrafish embryos were obtained by natural spawning in our aquaculture facility. To reduce variations between batches, randomized samples of embryos from 3 or 4 independent matings were used. The test medium was prepared by combining 5 g of Instant Ocean Salt with 3 g of CaSO4 in 25 liters of distilled water, according to Westerfield, supra. The embryos were maintained in the test medium throughout the experiments. Embryos at 24 hours of development (with chorion) were exposed continuously for five days to chemical compounds at different concentrations of the chemical compounds and controls. In general, the concentrations ranged from 100 nanomolar (nM) to 100 micromolar (μM). Tests were repeated four times for each series of dilutions, and a standard deviation was calculated for each treatment (see “Statistical Methods” section). Ten embryos per concentration were exposed in a total volume of 1 ml (constant ratio of 100 μl/embryo) using a 24 multi-well plate. (Other sizes of multi-well plates, such as 96-well plates can also be used to facilitate screening.) The compounds were renewed daily. In all cases, 0.1% of dimethyl sulfoxide (DMSO) was used as a carrier solvent during the treatment. Controls with and without 0.1% DMSO were performed in all experiments. This approach has long been used to introduce anesthetics and other chemicals into fish embryos (Westerfield, supra).
Experiments were carried out at a constant temperature (28–28.5° C.) in the dark to protect the compounds from decomposition due to light exposure. Dead embryos were removed daily, counted, and used to calculate the Median Lethal Concentration (LC50, see “Statistical Methods” section herein). Each day, surviving embryos were analyzed visually under a dissecting binocular microscope (Zeiss, amplification 30–50×). Macroscopic malformations (such as axial defects, embryolethality, growth inhibition, general malformations, including microcephaly, macrocephaly, tail truncation, tail malformation, loss of axial structures, such as somites, etc.) were observed, classified, and counted to assess whole animal toxicity. Compounds that were lethal or induced these or any noted malformations or disruptions during development (e.g., during the first 5 days of development) were further examined for toxic effects on organs. The embryonic developmental stage that is affected by the toxic compound can be determined. Organ toxicity can be assessed in surviving embryos using in situ hybridization, enzymatic assays, and immunochemistry procedures.
Toxic activity in the kidney (Pronephros) can be assessed visually by colorimetric staining of the kidney of the treated whole animal (e.g., zebrafish). Zebrafish pronephros express high levels of the enzyme alkaline phosphatase that can be easily assayed using a chromogenic dye. To stain kidneys in zebrafish embryos, embryos were fixed with 2% paraformaldehyde overnight at 4° C. and then treated with methanol 100% for 30 minutes at room temperature. […]
For the concentrations tested with aspirin and dexamethasone in these studies, there was no partial lethality and the geometric mean of the parameters “no mortality” (0%) and “mortality” (100%) of the effect concentration was taken as the LC50 and binomial confidence limits were calculated according to Stephan, “Methods for Calculating LD50” in Aquatic Toxicology and Hazard Evaluation (F. L. Mayce and J. L. Hamelink eds.) ASTM STP 634, pp. 65–84. […]

[2] = system: mice and rats; settings: TOXNET Web Search and other sources; cited from earlier work
[3] = system: zebrafish embryos; test: Rescue of induced cell death activity; format: in vivo; settings: for opacity at two hours after the addition of 100 μM Ibuprofen / opaque cells at one hour after 100 μM Ibuprofen: yolk injection of 25 μM Caspase 3 inhibitor or PBS at 24 hours; for opaque cells at one hour after 100 μM Ibuprofen: Ibuprofen at 26 hours
Experimental: To determine if the teleost model could be used to screen for compounds which blocked or reduced cell death activity, embryos were microinjected with a Caspase 3 inhibitor (Calbiochem #264155) prior to exposure to Ibuprofen.
Specifically, embryos at 24 hours of development were dechorionated and microinjected with either 25 μM Caspase 3 inhibitor or PBS into the yolk. At 26 hours of development, embryos were exposed to 100 μM Ibuprofen by addition to the media.

[4] = system: zebrafish embryos; test: Fluorescent detection of cell death in live zebrafish embryos; format: in vivo; settings: 100 μM
Experimental: As an additional test of our cell death detection method, we also examined the ability of the dye to label cells in embryos treated with Ibuprofen, a cyclooxygenase inhibitor, which causes a characteristic pattern of cell death. This pattern consists of a posterior to anterior progression of dying cells as indicated by a progression of opacity changes in the cells of the embryo.
Embryos as 24 hours of development were pretreated for 1 hour with a 100 nanomolar concentration of the fluorescent dye (e.g., benzothiazolium-4-quinolium dye) in embryo media. The embryos were then exposed to 100 μM of Ibuprofen by addition to the media and examined by light and epifluorescence microscopy every 15 minutes for 2 hours. Control embryos were pretreated with the same concentration of dye, but were not exposed to the Ibuprofen. […] This pattern of fluorescently labeled cells was identical to the pattern observed for the opacity changes in the embryo.

[5] = system: zebrafish embryo; test: First screening experiments for anti-angiogenic effects (compound added to fish culture media); format: in vivo; settings: for other effects / complications in the embryo / effect on blood vessel formation: added to the fish culture media; for effect on blood vessel formation: AP staining day three; for diffusion into the zebrafish embryo: after addition to the media
Experimental: On the third day of development, embryos were collected for alkaline phosphatase staining. Specifically, embryos were fixed in 4% paraformaldehyde and stained for endogenous alkaline phosphatase activity. Embryos were fixed for 2 hours at room temperature. The embryos were then washed two times in phosphate buffered saline (PBS) and dehydrated by immersion in 25%, 50%, 75% and 100% methanol in phosphate buffered saline with 0.1% Tween (PBT) to permeabilize the embryos. The embryos were then rehydrated and washed in 100% PBT. For staining, embryos were equilibrated in NTMT buffer (0.1M Tris-HCl pH 9.5; 50 mM MgCl; 0.1M NaCl; 0.1% Tween 20) at room temperature. After the embryos equilibrated, embryos were stained by adding 4.5 μl of 75 mg/ml nitro blue tetrazolium (NBT) and 3.5 μL of 50 mg/ml X-phosphate per ml. After staining for 10 minutes, all the blood vessels in the fish embryo were labeled (see FIGS. 2A–2C, 3A–3B, 4, 7). The staining reaction was stopped by addition of PBST. Embryos were then examined on a stereo-dissecting microscope. One advantage of using the zebrafish for this type of assay is that the subintestinal vessels, which are located over the yolk, are both sensitive to factors which effect vessel formation and easily assayed by this method (see, e.g., FIG. 7). The subintestinal vessels are normally present on the dorsolateral surface of the yolk of zebrafish embryos by 48 hours of development. They form a distinct basket shape that extends 50–100 μm from the ventral edge of the somite over the yolk. By assaying the subintestinal vessels at 72 hours of development (24 hours after the subintestinal vessels normally appear), normal variation in the timing of the vessel formation was avoided. The staining procedure is easily automated using commercially available instrumentation.
In our first set of screening experiments for anti-angiogenic effects, we examined the effect of fumagillin, a natural anti-angiogenesis chemical, on blood vessel formation in the zebrafish embryo. The compound was administered by addition to the fish culture media. […] Using the screening parameters described above, we identified two compounds that caused apparently specific anti-angiogenic effects. In addition, we identified 16 other compounds that caused a reduction of angiogenic vessel formation in addition to other effects.

[6] = system: zebrafish embryos; test: Microinjection of proteins into 24 hour embryos, effect on vessel formation; format: in vivo
Experimental: To examine the effects of proteins and protein fragments (and peptides and peptide fragments) on angiogenesis in teleost embryos, proteins (and protein fragments and peptide fragments) were directly injected into the circulation of 24 hour zebrafish embryos. Embryos were collected and dechorionated as described above. The embryos were then sorted into holding ramps made of 1% agarose in embryo water and oriented with the yolk ball projecting up. Microinjection injection was performed as follows: the proteins were suspended in PBS and backfilled into a pulled glass micropipet. The micropipet was then attached to a micromanipulator and a picospritzer (General Valve) attached to a nitrogen tank. Using the micromanipulator, the tip of the micropipet was inserted into the embryo and a small volume of protein solution was expelled from the tip using positive pressure. To determine if our animal model could be used effectively to screen for these compounds, we performed a series of experiments in which we injected one of two different proteins having opposing effects on vessel formation—human endostatin (O'Reilly et al., Cell 88(2):277–285 (1997)) and human vascular endothelial growth factor (VEGF)—into an embryo. Endostatin, a collagen XVIII fragment, is an endogenous protein with potent anti-angiogenic activity. […] In preliminary experiments, we injected VEGF protein either into the yolk ball or into the perivitelline space between the yolk and the periderm. Because the second location is in the path of the venous return, proteins end up in the circulation of the embryo. To backfill the injection pipettes, we used a 2 mg/ml solution of VEGF. […] This is consistent with observations in other vertebrates. Drake et al., Proc. Natl. Acad. Sci. USA 92(17):7657–7661 (1995); Fouquet et al., supra. Endostatin was injected into the zebrafish as was VEGF.

[7] = 24 hour embryos pretreated with dye
[8] = 2 mg/ml solution, 24 hour embryos, AP staining at 72 hours

## CC(=O)Oc1ccccc1C(=O)O [Aspirin]
[1]; embryos exposed continuously for five days from 24 hours of development
  Zebrafish LD50: 101 mg/L
[1]; five-day exposure
  Zebrafish specific toxicity observed: teratogen,; also recorded: kidney,; also recorded: muscle; also recorded: erratic
[2]
  Mammalian models specific toxicity (from the literature): kidney,; also recorded: ureter,; also recorded: cardio-; also recorded: cranio-; also recorded: musculo-

## COC(=O)CC[C@H](NC(=O)[C@H](CC(=O)OC)NC(=O)OCc1ccccc1)C(=O)N[C@H](C(=O)N[C@@H](CC(=O)OC)C(=O)CF)C(C)C [Caspase 3 inhibitor]
[3]; yolk injection of 25 μM Caspase 3 inhibitor
  survival by 24 hours after the introduction of 100 μM Ibuprofen: all of the experimental embryos were dead
[3]
  opacity at two hours after the addition of 100 μM Ibuprofen: still transparent
  opaque cells at one hour after 100 μM Ibuprofen: not in embryos injected with the Caspase inhibitor

## CC(C)Cc1ccc(C(C)C(=O)O)cc1 (centres unmarked) [Ibuprofen]
[4]; 24 hour embryos pretreated with 100 nanomolar dye
  fluorescently labeled (dead or dying) cells within 1 hour: fluorescently labeled cells were detected in the posterior tip of the tail
[4]; [7]
  fluorescently labeled cells at 1 hour and 30 minutes: labeled cells were detected in a large patch, extended from the tip of the tail to the level of the anus
  fluorescently labeled cells by two hours: fluorescently labeled cells could be seen throughout the embryo
[3]
  opacity at two hours after the addition of 100 μM Ibuprofen: completely opaque
  opaque cells at one hour after 100 μM Ibuprofen: opaque cells were observed

## CO[C@@H]1[C@H](OC(=O)/C=C/C=C/C=C/C=C/C(=O)O)CC[C@]2(CO2)[C@H]1[C@@]1(C)O[C@@H]1CC=C(C)C [fumagillin]
[5]
  other effects / complications in the embryo: pericardial edema, developmental delay, and axial defects
  effect on blood vessel formation: reduction in angiogenesis
  diffusion into the zebrafish embryo: capable of diffusing into the zebrafish embryo

## Ovicillin
[5]
  other effects / complications in the embryo: pericardial edema
  effect on blood vessel formation: reduction in the subintestinal vessels
  diffusion into the zebrafish embryo: capable of diffusing into the zebrafish embryo

## VEGF
[6]; [8]
  angiogenic phenotypes after injection into the yolk: the appearance of long spikes projecting from the subintestinal vessel basket; also recorded: increased vessel diameters in the subintestinal basket
  effect after injection into the perivitelline space: disruption of vessel formation; also recorded: fusion of large vessels, inappropriate vessel formation

## endostatin
[6]; injected into the zebrafish as was VEGF
  effect on vessel formation after injection: inconsistent and thus uninterpretable
